# Experimental data: US20090042823A1 (priority 2007, published 2009)
# Tested on: PR8 virus
# Parameters: species or system influenza A virus
# Conditions: in vivo
compound,measurement,value
"CCOC(=O)C1=C[C@@H](OC(CC)CC)[C@H](NC(C)=O)[C@@H](N)C1 [oseltamivir drug, oseltamivir]",influenza viral titer relative to GFP control siRNA,reduced influenza viral titers
